Measurements published in PMC9413491, “A Novel and Cross-Species Active Mammalian INDY (NaCT) Inhibitor Ameliorates Hepatic Steatosis in Mice with Diet-Induced Obesity” (Metabolites, 2022).

Assays:
DIO mice = test: 28-day treatment of diet-induced obesity (DIO) mice; assay type: in vivo, mouse
Description: We performed in vivo testing in DIO mice (for 7- and 28-day treatment), an established model designed to study high-fat-diet-induced hepatic steatosis and associated cardiometabolic traits. We established DIO in four-week-old C57BL/6N male mice that were fed a high-fat diet (HFD, 60 kcal% fat, D12492; Research Diets, Inc.; New Brunswick, NJ, USA) until 11 weeks of age.
Mice were housed at a temperature of 22–24 °C, with a day/night cycle of 12/12 h (07:00-19:00–07:00) and had access to the appropriate diet and tap water ad libitum. Animals allocated to the pair-feeding group were fed the same amount of food as the corresponding treatment group had consumed the day before. Food was only withdrawn for overnight fasting on the penultimate study day before the section on the final day. We randomised groups of n = 12 for treatment and n = 8 for pair-feeding cage-wise according to random fed blood glucose levels and body weight before the study treatment was started. For all animals, the high-fat diet was started at the same age.
We treated DIO mice with the inhibitor or corresponding vehicle (5% DMSO/10% Cremophor® EL/85% water) twice a day at the same time by oral gavage according to their grouping (5, 15, and 50 mg/kg dose groups, and vehicle control groups). During the study, we measured body weight and blood glucose. We measured glucose concentrations in tail tip blood samples with the “Accu-Chek® Performa” glucometer (Roche, Basel, Switzerland, range <33.3 mmol/L). We determined random fed blood glucose and fasting blood glucose after overnight fasting.
An intraperitoneal glucose tolerance test was performed after an overnight fasting period. Mice were injected with 1g/kg glucose and blood glucose was measured over a period of 180 min.
At the end of study day 28, we obtained blood and liver samples. In anesthetised animals, we collected retro-orbital blood samples in non-coated tubes (Sarstedt, Inc., Nümbrecht, Germany). Then, we sacrificed animals by cervical dislocation. We dissected and weighed the livers and immediately froze liver samples in liquid nitrogen for further analysis.
For serum sample generation, we centrifuged blood at 4000× g for 10 min and dispensed serum samples into a 110 µL plus an additional aliquot. Samples were stored at −80 °C. For Piccolo® system (Abaxis, Inc., Union City, CA, USA) analysis (lipid panel including triglycerides and cholesterol), we used a 110 µL serum aliquot.
The frozen tissue from liver samples were used to determine the triglyceride content via triglyceride assay according to the manufacturer’s protocol (Sigma-Aldrich, Cat.No.TR0100) using glycerol as a standard (Sigma-Aldrich, Glycerol G7793, St. Louis, MO, USA).
We determined body composition in mice using the non-invasive Bruker Minispec Instrument MQ 10 NMR Analyser (Bruker, Billerica, MA, USA). We placed mice in a clear, plastic cylinder and kept them immobile by inserting a tight-fitting plunger into the cylinder. For scanning, the tube was placed in the sample chamber for approximately one minute. Body composition was calculated and related to whole body weight.
We isolated total RNA from individual liver samples from all animals in 1.5 mL Trizol reagent (Life Technologies, Carlsbad, CA, USA) at 4 °C according to the manufacturer’s instructions. Then, we purified total RNA utilising the RNeasy Mini Kit (Qiagen, Hilden, Germany) with DNase-treatment to completely remove genomic DNA according to the instructions of the manufacturer. Subsequently, RNA was reverse transcribed using Superscript II RnaseH Reverse Transcriptase (Life Technologies) and subjected to Taqman analysis using the Taqman Fast Advanced Master Mix (Applied Biosystems, Weiterstadt, Germany). The Mix contains AmpliTaq® Fast DNA Polymerase, AmpErase UNG, dNTPs with dUTP, passive reference Rox and optimised buffer components. Quantitative PCR was performed in the Quantstudio 7 Flex System (Applied Biosystems, Weiterstadt, Germany). […]

[1] = Viability (PrestoBlue) / cytotoxicity in HepG2 cells; assay type: cell-based; settings: human, parallel to fatty acid synthesis assay
Description: We performed the fatty acid synthesis assay in HepG2 cells. We seeded cells into black clear-bottom 96-well plates (Corning 3340 cell plate) 75,000/well and incubated at 37 °C. After 16–24 h, we washed the plates once with 100 µL PBS (+CaCl2 +MgCl2) and added 50 µL assay medium ([…] containing 11 mM glucose, 10 mM HEPES, and 1 nM insulin) per well. Then, we applied test substances in assay medium (10 µL, 5% DMSO) and incubated for 20 min at 37 °C. Thereafter, we added 10 µL assay medium containing [14C] citrate (final concentration 50 µM) and PrestoBlue reagent (1× final concentration; Thermo Fisher Scientific, Waltham, MA, USA) and incubated for 180 min (37 °C, 5% CO2). We measured cell viability (ViewLux instrument, Perkin Elmer). We removed medium by vacuum aspiration and washed cells once with 100 µL PBS (+CaCl2 +MgCl2). We lysed cells with 50 µL lysis buffer (0.1 N NaOH, 0.1 % Triton X-100) and sealed plates with Tape Pads and vortexed. For the saponification reaction, we incubated plates for 16–24 h at 70 °C in a humidified environment. Then, we removed seals and added 200 µL 0.1 N HCl to neutralise the pH. We transferred 150 µL from each into corresponding wells of a 96-well Flash plate (Perkin Elmer) and sealed with TopSeal A (Perkin Elmer). […] We measured [14C] radioactivity (microbeta2, Perkin Elmer). […]

[2] = 15 mg/kg oral twice daily, 28 days
[3] = 15 mg/kg oral twice daily, 28 days, p < 0.001
[4] = 15 mg/kg oral twice daily, 28 days, p < 0.01
[5] = 15 mg/kg oral twice daily, 28 days, p < 0.05

O=C(Nc1cc(Cl)cc(C(F)(F)F)c1)OCCC(F)(F)F [ETG-5773]
Glucose excursion AUC (IPGTT) vs pair-fed control (DIO mice; 15 mg/kg oral twice daily): not significant | Glucose tolerance (IPGTT) vs vehicle control and pair-fed group (DIO mice; 15 mg/kg oral twice daily, 1 g/kg glucose i.p., all p < 0.05): significantly improved glucose tolerance | Plasma cholesterol concentrations (DIO mice; [2]): no effect | Plasma triglyceride concentrations vs vehicle (DIO mice; [2]): though not compared to the vehicle | Reduction in fasting insulin vs pair-fed (DIO mice; 15 mg/kg oral twice daily, 28 days, non-significant p = 0.2): 70% | Reduction in body weight vs vehicle group (DIO mice; 15 mg/kg oral twice daily, 28 days, p < 0.0001): 19% | Reduction in fasting blood glucose vs pair-fed (DIO mice; [3]): 25% | Reduction in hepatic triglyceride content vs pair-fed (DIO mice; [3]): 25% | Plasma triglyceride concentrations vs pair-fed (DIO mice; [4]): slightly increased | Reduction in body weight vs pair-fed group (DIO mice; [4]): 14% | Decrease in fasting blood glucose vs vehicle (DIO mice; [5]): 17% | Reduction in fasting insulin vs vehicle (DIO mice; [5]): 75% | Glucose excursion AUC (IPGTT) vs vehicle control (DIO mice; 15 mg/kg oral twice daily, p < 0.05): significantly reduced | Hepatic Fasn mRNA vs pair-fed group (DIO mice; 15 mg/kg twice daily, 28 days, p 0.09): trend for reduction | Hepatic Srebf1 mRNA vs vehicle control and pair-fed (DIO mice; 15 mg/kg twice daily, 28 days, p < 0.0001): significantly downregulated | Hepatic Scd1 mRNA vs vehicle control and pair-fed (DIO mice; 15 mg/kg twice daily, 28 days, p < 0.0001 vehicle, p < 0.001 pair-fed): significantly downregulated | Hepatic Acly mRNA vs vehicle control and pair-fed (DIO mice; 15 mg/kg twice daily, 28 days, p < 0.001 vehicle, p < 0.01 pair-fed): significantly downregulated | Hepatic Fasn mRNA vs vehicle control (DIO mice; 15 mg/kg twice daily, 28 days, p < 0.01): significantly downregulated | Hepatic Acc1 mRNA vs vehicle control (DIO mice; 15 mg/kg twice daily, 28 days, p < 0.05): significantly downregulated | Hepatic Acc1 mRNA vs pair-fed group (DIO mice; 15 mg/kg twice daily, 28 days, p < 0.1): trend for reduction | Body fat as percentage of body weight vs vehicle and pair-fed (DIO mice; 15 mg/kg twice daily, day 22): significant decrease | Lean mass as percentage of body weight vs vehicle and pair-fed (DIO mice; 15 mg/kg twice daily, day 22): significant increase | Fat mass (NMR) vs vehicle control and pair-fed group (DIO mice; 15 mg/kg twice daily, day 22, p < 0.0001 vs vehicle, p < 0.01 vs pair-fed): markedly reduced | Lean mass (NMR) vs vehicle control (DIO mice; 15 mg/kg twice daily, day 22, p < 0.01, not significant vs pair-fed): significantly lower | IC50 at 180 min [1]: > 50 µM
